Test results reported in US7238694B2, “Rifamycin imino derivatives effective against drug-resistant microbes” (Cumbre Pharmaceuticals, Inc., priority 2004, dated 2007).
Values after ≈ are worked out from the molar mass of the structure shown.

What was measured:
Type in all cases: cell-based
[1] = test system: Staphylococcus aureus ATCC29213; experiment: MIC, microbroth dilution (NCCLS); conditions: rifS strain, Cation-Adjusted Mueller-Hinton Broth, 37° C., read-out: MIC
[2] = test system: Staphylococcus aureus ATCC29213 rpoB^H418Y; experiment: microbe, parasite or virus in culture; conditions: Staphylococcus aureus, ATCC29213; rifR strain; Cation-Adjusted Mueller-Hinton Broth, 37° C.; read-out: MIC
[3] = test system: Staphylococcus aureus MT1222 gyrA^A116E grlB^S80F; experiment: microbe, parasite or virus in culture; conditions: cipR strain, Cation-Adjusted Mueller-Hinton Broth, 37° C., read-out: MIC
[4] = test system: Staphylococcus epidermidis ATCC12228; experiment: MIC, microbroth dilution (NCCLS); conditions: rifS strain, Cation-Adjusted Mueller-Hinton Broth, 37° C., read-out: MIC
[5] = test system: Streptococcus pneumoniae ATCC6303; experiment: MIC, microbroth dilution (NCCLS); conditions: rifS strain, THY Broth with 1 mg/mL catalase, 5% CO2, 37° C., read-out: MIC
[6] = test system: Streptococcus pyogenes ATCC19615; experiment: MIC, microbroth dilution (NCCLS); conditions: rifS strain, THY Broth, 37° C., read-out: MIC
[7] = test system: Haemophilus influenzae ATCC10211; experiment: MIC, microbroth dilution (NCCLS); conditions: rifS strain, BHI Broth with NAD and hematin, 37° C., read-out: MIC

Structure (SMILES)	MIC [1] [µg/mL]	MIC [2] [µg/mL]	MIC [3] [µg/mL]	MIC [4] [µg/mL]	MIC [5] [µg/mL]	MIC [6] [µg/mL]	MIC [7] [µg/mL]
CO[C@H]1/C=C/O[C@@]2(C)Oc3c(C)c(O)c4c(O)c(c(/C=N/N5CCN(c6nc7c(cc6F)c(=O)c(C(=O)O)cn7-c6ccc(F)cc6F)CC5)c(O)c4c3C2=O)NC(=O)/C(C)=C\C=C\[C@H](C)[C@H](O)[C@@H](C)[C@@H](O)[C@@H](C)[C@H](OC(C)=O)[C@@H]1C [Example 14, 3-[4-[3-Carboxy-1-(2,4-difluoro-phenyl)-6-fluoro-4-oxo-1,4-dihydro-[1,8]naphthyridine-7-yl]-piperazin-1-ylaminomethylenyl]rifamycin SV]	0.008 to 1 (≈ 0.0071 to 0.887 µM)	0.06 to 16 (≈ 0.0532 to 14.2 µM)	0.008 to 0.125 (≈ 0.0071 to 0.111 µM)	0.008 to 0.1 (≈ 0.0071 to 0.0887 µM)	0.008 to 0.06 (≈ 0.0071 to 0.0532 µM)	0.008 to 0.03 (≈ 0.0071 to 0.0266 µM)	0.125 to 4 (≈ 0.111 to 3.55 µM)
CCn1cc(C(=O)O)c(=O)c2cc(F)c(N3CCN(/N=C/c4c5c(O)c6c(O)c(C)c7c(c6c4O)C(=O)[C@@](C)(O/C=C/[C@H](OC)[C@@H](C)[C@@H](OC(C)=O)[C@H](C)[C@H](O)[C@H](C)[C@@H](O)[C@@H](C)/C=C/C=C(/C)C(=O)N5)O7)CC3)cc21 [Example 18, 3-[4-(3-Carboxy-1-ethyl-6-fluoro-4-oxo-1,4-dihydroquinolin-7-yl)-piperazin-1-yl-aminomethylenyl]-rifamycin SV]	0.008 to 1 (≈ 0.00768 to 0.96 µM)	0.06 to 16 (≈ 0.0576 to 15.4 µM)	0.008 to 0.125 (≈ 0.00768 to 0.12 µM)	0.008 to 0.1 (≈ 0.00768 to 0.096 µM)	0.008 to 0.06 (≈ 0.00768 to 0.0576 µM)	0.008 to 0.03 (≈ 0.00768 to 0.0288 µM)	0.125 to 4 (≈ 0.12 to 3.84 µM)
CCn1cc(C(=O)O)c(=O)c2cc(F)c(N3CCN(/N=C/c4c5c(O)c6c(O)c(C)c7c(c6c4O)C(=O)[C@@](C)(O/C=C/[C@H](OC)[C@@H](C)[C@@H](OC(C)=O)[C@H](C)[C@H](O)[C@H](C)[C@@H](O)[C@@H](C)/C=C/C=C(/C)C(=O)N5)O7)CC3)nc21 [Example 19, 3-[4-(3-Carboxy-1-ethyl-6-fluoro-4-oxo-1,4-dihydro-[1,8]naphthyridine-7-yl)-piperazin-1-yl-aminomethylenyl]-rifamycin SV]	0.008 to 1 (≈ 0.00767 to 0.959 µM)	0.06 to 16 (≈ 0.0575 to 15.3 µM)	0.008 to 0.125 (≈ 0.00767 to 0.12 µM)	0.008 to 0.1 (≈ 0.00767 to 0.0959 µM)	0.008 to 0.06 (≈ 0.00767 to 0.0575 µM)	0.008 to 0.03 (≈ 0.00767 to 0.0288 µM)	0.125 to 4 (≈ 0.12 to 3.83 µM)
COc1c(N2CCN(/N=C/c3c4c(O)c5c(O)c(C)c6c(c5c3O)C(=O)[C@@](C)(O/C=C/[C@H](OC)[C@@H](C)[C@@H](OC(C)=O)[C@H](C)[C@H](O)[C@H](C)[C@@H](O)[C@@H](C)/C=C/C=C(/C)C(=O)N4)O6)CC2)c(F)cc2c(=O)c(C(=O)O)cn(C3CC3)c12 [Example 20, 3-[4-(3-Carboxy-1-cyclopropyl-6-fluoro-8-methoxy-4-oxo-1,4-dihydroquinolin-7-yl)-piperazin-1-yl-aminomethylenyl]-rifamycin SV]	0.008 to 1 (≈ 0.00738 to 0.922 µM)	0.06 to 16 (≈ 0.0553 to 14.8 µM)	0.008 to 0.125 (≈ 0.00738 to 0.115 µM)	0.008 to 0.1 (≈ 0.00738 to 0.0922 µM)	0.008 to 0.06 (≈ 0.00738 to 0.0553 µM)	0.008 to 0.03 (≈ 0.00738 to 0.0277 µM)	0.125 to 4 (≈ 0.115 to 3.69 µM)
COc1c(N2CCN(C3CCN(/N=C/c4c5c(O)c6c(O)c(C)c7c(c6c4O)C(=O)[C@@](C)(O/C=C/[C@H](OC)[C@@H](C)[C@@H](OC(C)=O)[C@H](C)[C@H](O)[C@H](C)[C@@H](O)[C@@H](C)/C=C/C=C(/C)C(=O)N5)O7)CC3)CC2)c(F)cc2c(=O)c(C(=O)O)cn(C3CC3)c12 [Example 25, 3-{4-[1-(3-Carboxy-1-cyclopropyl-6-fluoro-8-methoxy-4-oxo-1,4-dihydroquinolin-7-yl)-piperazin-4-yl]-piperidin-1-yl-aminomethylenyl}-rifamycin SV]	0.008 to 1 (≈ 0.00685 to 0.857 µM)	0.06 to 16 (≈ 0.0514 to 13.7 µM)	0.008 to 0.125 (≈ 0.00685 to 0.107 µM)	0.008 to 0.1 (≈ 0.00685 to 0.0857 µM)	0.008 to 0.06 (≈ 0.00685 to 0.0514 µM)	0.008 to 0.03 (≈ 0.00685 to 0.0257 µM)	0.125 to 4 (≈ 0.107 to 3.43 µM)
COc1c(N2CCC(N3CCN(/N=C/c4c5c(O)c6c(O)c(C)c7c(c6c4O)C(=O)[C@@](C)(O/C=C/[C@H](OC)[C@@H](C)[C@@H](OC(C)=O)[C@H](C)[C@H](O)[C@H](C)[C@@H](O)[C@@H](C)/C=C/C=C(/C)C(=O)N5)O7)CC3)CC2)c(F)cc2c(=O)c(C(=O)O)cn(C3CC3)c12 [Example 27, 3-{4-[1-(3-Carboxy-1-cyclopropyl-6-fluoro-8-methoxy-4-oxo-1,4-dihydroquinolin-7-yl)-piperidin-4-yl]-piperazin-1-yl-aminomethylenyl}-rifamycin SV]	0.008 to 1 (≈ 0.00685 to 0.857 µM)	0.06 to 16 (≈ 0.0514 to 13.7 µM)	0.008 to 0.125 (≈ 0.00685 to 0.107 µM)	0.008 to 0.1 (≈ 0.00685 to 0.0857 µM)	0.008 to 0.06 (≈ 0.00685 to 0.0514 µM)	0.008 to 0.03 (≈ 0.00685 to 0.0257 µM)	0.125 to 4 (≈ 0.107 to 3.43 µM)
COc1c(N2CCN(C(=O)C3CCN(/N=C/c4c5c(O)c6c(O)c(C)c7c(c6c4O)C(=O)[C@@](C)(O/C=C/[C@H](OC)[C@@H](C)[C@@H](OC(C)=O)[C@H](C)[C@H](O)[C@H](C)[C@@H](O)[C@@H](C)/C=C/C=C(/C)C(=O)N5)O7)CC3)CC2)c(F)cc2c(=O)c(C(=O)O)cn(C3CC3)c12 [Example 32, 3-{4-[4-(3-Carboxy-1-cyclopropyl-6-fluoro-8-methoxy-4-oxo-1,4-dihydroquinolin-7-yl)-piperazine-1-yl-carbonyl]-piperidin-1-yl-aminomethylenyl}-rifamycin SV]	0.008 to 1 (≈ 0.00669 to 0.837 µM)	0.06 to 16 (≈ 0.0502 to 13.4 µM)	0.008 to 0.125 (≈ 0.00669 to 0.105 µM)	0.008 to 0.1 (≈ 0.00669 to 0.0837 µM)	0.008 to 0.06 (≈ 0.00669 to 0.0502 µM)	0.008 to 0.03 (≈ 0.00669 to 0.0251 µM)	0.125 to 4 (≈ 0.105 to 3.35 µM)
